Source: patent US6737383B1, “Herbicidal oxadiazolidines” (priority 1999, dated 2004)

How the values were obtained:
[1] = tested on: velvetleaf; experiment: Test B pre/postemergence velvetleaf; format: in vivo, Abutilon theophrasti
Outline: (§1)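 Response is a visual 0-to-10 score relative to untreated plants, where 0 means no effect and 10 means complete control, taken twelve to sixteen days after application. Treatments went onto soil at planting and onto foliage of 1- to 4-leaf plants, using a surfactant-containing non-phytotoxic solvent.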

[2] = tested on: giant foxtail; experiment: Test B pre/postemergence giant foxtail; format: in vivo, Setaria faberii
Outline: as §1

[3] = tested on: corn; experiment: Test B pre/postemergence corn; format: in vivo, Zea mays
Outline: as §1

[4] = tested on: sugar beet; experiment: Test B pre/postemergence sugar beet; format: in vivo, Beta vulgaris
Outline: as §1

[5] = tested on: cocklebur; experiment: Test B pre/postemergence cocklebur; format: in vivo, Xanthium strumarium
Outline: as §1

[6] = tested on: rape; experiment: Test B pre/postemergence rape; format: in vivo, Brassica napus
Outline: as §1

[7] = tested on: wild oat; experiment: Test B pre/postemergence wild oat; format: in vivo, Avena fatua
Outline: as §1

[8] = tested on: crabgrass; experiment: Test B pre/postemergence crabgrass; format: in vivo, Digitaria sanguinalis
Outline: as §1

[9] = tested on: soybean; experiment: Test B pre/postemergence soybean; format: in vivo, Glycine max
Outline: as §1

[10] = tested on: rice; experiment: Test B flood test rice; format: in vivo, Oryza sativa
Outline: (§2)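 Each value is a visual injury score relative to controls, with 10 meaning complete control and 0 no effect. Evaluation took place twelve to sixteen days after the 2-leaf-stage plants were treated and kept in the greenhouse.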

[11] = tested on: wheat; experiment: Test B pre/postemergence wheat; format: in vivo, Triticum aestivum
Outline: as §1

[12] = tested on: duck salad; experiment: Test B flood test duck salad; format: in vivo, Heteranthera limosa
Outline: as §2

[13] = tested on: purple nutsedge; experiment: Test B pre/postemergence purple nutsedge; format: in vivo, Cyperus rotundus
Outline: as §1

[14] = tested on: pigweed; experiment: Test B pre/postemergence pigweed; format: in vivo, Amaranthus retroflexus
Outline: as §1

[15] = tested on: smallflower flatsedge; experiment: Test B flood test smallflower flatsedge; format: in vivo, Cyperus difformis
Outline: as §2

[16] = tested on: morningglory; experiment: Test B pre/postemergence morningglory; format: in vivo, Ipomoea hederacea
Outline: as §1

[17] = Postemergence, Rate 62 g/ha, scale 0 to 10, 0 is no effect, 10 is complete control
[18] = Postemergence, Rate 125 g/ha, scale of 0 to 10 where 0 is no effect and 10 is complete control
[19] = Preemergence, Rate 62 g/ha, scale of 0 to 10 where 0 is no effect and 10 is complete control
[20] = Preemergence, Rate 125 g/ha, scale of 0 to 10 where 0 is no effect and 10 is complete control
[21] = Preemergence, Rate 500 g/ha, scale of 0 to 10 where 0 is no effect and 10 is complete control
[22] = Rate 500 g/ha, Postemergence, scale 0 to 10, 0 is no effect, 10 is complete control
[23] = Postemergence, Rate 250 g/ha, scale of 0 to 10, 0 is no effect, 10 is complete control
[24] = Preemergence, Rate 250 g/ha, scale 0 to 10 (0 no effect, 10 complete control)
[25] = Rate 62 g/ha, flood test species, Pre-emergence, visual evaluation after twelve to sixteen days
[26] = Rate 125 g/ha, under heading Pre-emergence, flood test species, visual evaluation after twelve to sixteen days
[27] = Rate 250 g/ha, Pre-emergence (flood test species), scale 0 to 10, 0 is no effect, 10 is complete control
[28] = Rate 500 g/ha, Pre-emergence section of Table B, 0 to 10 scale (0 no effect, 10 complete control)

Question: Which results are given for CC(C)N(C(=O)n1oc(=O)n(CCCC#N)c1=O)c1ccc(F)cc1F [Compound 675]?
Answer: Plant response rating, Velvetleaf [1, 17]: 0; Velvetleaf plant response rating [1, 18]: 2; Velvetleaf plant response rating [1, 19]: 6; Plant response rating, Velvetleaf [1, 20]: 7; Plant response rating, Velvetleaf [1, 21]: 10; Velvetleaf plant response rating [1, 22]: 8; Plant response rating, Giant foxtail [2, 17]: 8; Giant foxtail plant response rating [2, 18]: 9; Giant foxtail plant response rating [2, 23]: 9; Giant foxtail plant response rating [2, 19]: 9; Plant response rating, Giant foxtail [2, 20]: 10; Plant response rating, Giant foxtail [2, 21]: 10; Giant foxtail plant response rating [2, 22]: 9; Plant response rating, Corn [3, 17]: 0; Corn plant response rating [3, 18]: 0; Corn plant response rating [3, 23]: 0; Corn plant response rating [3, 19]: 0; Plant response rating, Corn [3, 20]: 3; Plant response rating, Corn [3, 24]: 6; Plant response rating, Corn [3, 21]: 9; Corn plant response rating [3, 22]: 6; Plant response rating, Sugarbeets [4, 17]: 0; Sugarbeets plant response rating [4, 18]: 2; Sugarbeets plant response rating [4, 19]: 5; Plant response rating, Sugarbeets [4, 20]: 7; Plant response rating, Sugarbeets [4, 21]: 10; Sugarbeets plant response rating [4, 22]: 4; Plant response rating, Cocklebur [5, 17]: 0; Cocklebur plant response rating [5, 18]: 3; Cocklebur plant response rating [5, 23]: 3; Cocklebur plant response rating [5, 19]: 0; Plant response rating, Cocklebur [5, 20]: 0; Plant response rating, Cocklebur [5, 24]: 0; Plant response rating, Cocklebur [5, 21]: 0; Cocklebur plant response rating [5, 22]: 3; Plant response rating, Rape [6, 17]: 0; Rape plant response rating [6, 18]: 0; Rape plant response rating [6, 19]: 2; Plant response rating, Rape [6, 20]: 3; Plant response rating, Rape [6, 21]: 10; Rape plant response rating [6, 22]: 3; Plant response rating, Wild oats [7, 17]: 0; Wild oats plant response rating [7, 18]: 0; Wild oats plant response rating [7, 19]: 4; Plant response rating, Wild oats [7, 20]: 5; Plant response rating, Wild oats [7, 21]: 10; Wild oats plant response rating [7, 22]: 7; Plant response rating, Crabgrass [8, 17]: 6; Crabgrass plant response rating [8, 18]: 8; Crabgrass plant response rating [8, 23]: 9; Crabgrass plant response rating [8, 19]: 6; Plant response rating, Crabgrass [8, 20]: 7; Plant response rating, Crabgrass [8, 24]: 9; Plant response rating, Crabgrass [8, 21]: 10; Crabgrass plant response rating [8, 22]: 9; Plant response rating, Soybean [9, 17]: 4; Soybean plant response rating [9, 18]: 5; Soybean plant response rating [9, 19]: 0; Plant response rating, Soybean [9, 20]: 0; Plant response rating, Soybean [9, 21]: 4; Soybean plant response rating [9, 22]: 5; Plant response rating, Rice (0 to 10 scale, 0 is no effect, 10 is complete control) [10, 25]: 0; Rice plant response rating (0 to 10 scale, 0 is no effect, 10 is complete control) [10, 26]: 0; Rice plant response rating [10, 27]: 0; Rice plant response rating [10, 28]: 0; Plant response rating, Wheat [11, 17]: 0; Wheat plant response rating [11, 18]: 3; Wheat plant response rating [11, 19]: 0; Plant response rating, Wheat [11, 20]: 2; Plant response rating, Wheat [11, 21]: 9; Wheat plant response rating [11, 22]: 7; Plant response rating, Ducksalad (0 to 10 scale, 0 is no effect, 10 is complete control) [12, 25]: 0; Ducksalad plant response rating (0 to 10 scale, 0 is no effect, 10 is complete control) [12, 26]: 0; Ducksalad plant response rating [12, 27]: 0; Ducksalad plant response rating [12, 28]: 0; Plant response rating, Nutsedge [13, 17]: 0; Nutsedge plant response rating [13, 18]: 0; Nutsedge plant response rating [13, 19]: 0; Plant response rating, Nutsedge [13, 20]: 0; Plant response rating, Nutsedge [13, 21]: 7; Nutsedge plant response rating [13, 22]: 8; Plant response rating, Redroot pigweed [14, 17]: 2; Redroot pigweed plant response rating [14, 18]: 2; Redroot pigweed plant response rating [14, 19]: 5; Plant response rating, Redroot pigweed [14, 20]: 9; Plant response rating, Redroot pigweed [14, 21]: 10; Redroot pigweed plant response rating [14, 22]: 8; Plant response rating, S. Flatsedge (0 to 10 scale, 0 is no effect, 10 is complete control) [15, 25]: 0; S. Flatsedge plant response rating (0 to 10 scale, 0 is no effect, 10 is complete control) [15, 26]: 0; S. Flatsedge plant response rating [15, 27]: 0; S. Flatsedge plant response rating [15, 28]: 0; Plant response rating, Morningglory [16, 17]: 1; Morningglory plant response rating [16, 18]: 2; Morningglory plant response rating [16, 23]: 2; Morningglory plant response rating [16, 19]: 0; Plant response rating, Morningglory [16, 20]: 0; Plant response rating, Morningglory [16, 21]: 6; Morningglory plant response rating [16, 22]: 4
